# Source: publication PMC10766964, “Copper-catalyzed synthesis of pyrazolo[1,5-a]pyrimidine based triazole-linked glycohybrids: mechanistic insights and bio-applications” (Scientific Reports, 2024)
# Columns and labels:
# [1] = MTT cell viability assay in normal MCF-10A cells; type: cell-based; settings: human, MCF-10A normal mammary epithelial cells, MCF-10A normal cells, read-out: Cell viability (%) ± SD
# Protocol: (§1) We also included normal mammary epithelial MCF-10A cells in our experiments to confirm if the growth-inhibitory activities of the selected compounds are truly cancer cell-specific. The activity data from MCF-7 and MDA-MB-453 cell lines (tested at 1 µM, 10 µM and 25 µM) and activity data from MCF-10A cell line (tested at 25 µM, 50 µM and 100 µM) are summarized in Table 3. To evaluate cell viability, the MTT assay was conducted following standard procedures. After 72 h of cell incubation with or without each compound, cell viability was assessed using MTT (3-(4,5-dimethylthiazol-2-yl)-2,5-diphenyltetrazolium bromide), which is a colorimetric method for determining the number of viable cells in various assays including proliferation, cytotoxicity, or chemosensitivity. The MTT reagent was added to the cells after removal of the medium and incubated for 3 h at 37 °C in the CO2 incubator. The formazan product, which is […] in the tissue culture medium, was dissolved in DMSO, and the absorbance of the formazan product was directly measured at 595 nm using a multimode plate reader without additional processing. The absorbance values are directly proportional to the number of viable cells in culture. The percentage of viable cells in each group was determined relative to the untreated control cells.
# [2] = tested on: normal mammary epithelial MCF-10A cells; assay: MTT cell viability assay in normal MCF-10A cells; type: cell-based; settings: tested at 25 µM, 50 µM and 100 µM
# Protocol: as §1
Structure (SMILES),"viability at 72 h, 25 µM [1] [%]","viability at 72 h, 50 µM [1] [%]","viability at 72 h, 100 µM [1] [%]",growth inhibitory activity against normal breast epithelial cell (MCF-10A) (in words) [2]
"CC(=O)OC[C@H]1O[C@@H](n2cc(COc3cc(-c4ccc(C)cc4)nc4ccnn34)nn2)[C@H](OC(C)=O)[C@@H](OC(C)=O)[C@@H]1OC(C)=O [Compound 9a, (2R,3R,4S,5R,6R)-2-(acetoxymethyl)-6-(4-(((5-(p-tolyl)pyrazolo[1,5-a]pyrimidin-7-yl)oxy)methyl)-1H-1,2,3-triazol-1-yl)tetrahydro-2H-pyran-3,4,5-triyl triacetate]",88.6 ± 1.5,84.3 ± 2.9,84.2 ± 3,none of these compounds did have any growth inhibitory activity
"CC(=O)OC[C@H]1O[C@@H](n2cc(COc3cc(-c4ccc(Cl)cc4)nc4ccnn34)nn2)[C@H](OC(C)=O)[C@@H](OC(C)=O)[C@@H]1OC(C)=O [Compound 9d, (2R,3R,4S,5R,6R)-2-(acetoxymethyl)-6-(4-(((5-(4-chlorophenyl)pyrazolo[1,5-a]pyrimidin-7-yl)oxy)methyl)-1H-1,2,3-triazol-1-yl)tetrahydro-2H-pyran-3,4,5-triyl triacetate]",87.8 ± 2.8,85.6 ± 0.7,82 ± 1.5,none of these compounds did have any growth inhibitory activity
"CC(=O)OC[C@H]1O[C@@H](n2cc(COc3cc(-c4ccc5ccccc5c4)nc4ccnn34)nn2)[C@H](OC(C)=O)[C@@H](OC(C)=O)[C@@H]1OC(C)=O [Compound 9h, (2R,3R,4S,5R,6R)-2-(acetoxymethyl)-6-(4-(((5-(naphthalen-2-yl)pyrazolo[1,5-a]pyrimidin-7-yl)oxy)methyl)-1H-1,2,3-triazol-1-yl)tetrahydro-2H-pyran-3,4,5-triyl triacetate]",86.8 ± 5.3,88.8 ± 3,68.5 ± 3.4,none of these compounds did have any growth inhibitory activity
"CC(=O)OC[C@H]1O[C@@H](n2cc(COc3cc(-c4ccc(Cl)cc4)nc4ccnn34)nn2)[C@H](OC(C)=O)[C@@H](OC(C)=O)[C@H]1OC(C)=O [Compound 10d, (2R,3S,4S,5R,6R)-2-(acetoxymethyl)-6-(4-(((5-(4-chlorophenyl)pyrazolo[1,5-a]pyrimidin-7-yl)oxy)methyl)-1H-1,2,3-triazol-1-yl)tetrahydro-2H-pyran-3,4,5-triyl triacetate]",89.6 ± 2.2,85.6 ± 1.7,84.4 ± 2.6,none of these compounds did have any growth inhibitory activity
"CC(=O)OC[C@H]1O[C@@H](n2cc(COc3cc(-c4ccc(C(F)(F)F)cc4)nc4ccnn34)nn2)[C@H](OC(C)=O)[C@@H](OC(C)=O)[C@H]1OC(C)=O [Compound 10f, (2R,3S,4S,5R,6R)-2-(acetoxymethyl)-6-(4-(((5-(4-(trifluoromethyl)phenyl)pyrazolo[1,5-a]pyrimidin-7-yl)oxy)methyl)-1H-1,2,3-triazol-1-yl)tetrahydro-2H-pyran-3,4,5-triyl triacetate]",86.6 ± 1.5,88.1 ± 2.8,84.2 ± 3,none of these compounds did have any growth inhibitory activity
"CC(=O)OC[C@H]1O[C@H](n2cc(COc3cc(-c4ccc(C(C)C)cc4)nc4ccnn34)nn2)[C@@H](OC(C)=O)[C@@H](OC(C)=O)[C@@H]1OC(C)=O [Compound 11g, (2R,3R,4S,5S,6S)-2-(acetoxymethyl)-6-(4-(((5-(4-isopropylphenyl)pyrazolo[1,5-a]pyrimidin-7-yl)oxy)methyl)-1H-1,2,3-triazol-1-yl)tetrahydro-2H-pyran-3,4,5-triyl triacetate]",89.8 ± 2.8,84.2 ± 5.8,88 ± 1.5,none of these compounds did have any growth inhibitory activity
